Columns and labels:
[1] = test system: bone marrow stromal cells (BMSC); experiment: phospho-ERK in bone marrow stromal cells from wild-type and GPRC6A-/- mice; format: cell-based, mouse
Procedure: The femurs and tibias from 8-week-old wild-type and GPRC6A^−/− mice were dissected, the ends of the bones were cut, and marrow was flushed out with 2 mL of ice-cold a-MEM containing 10% FBS using a needle and syringe. A suspension of bone marrow cells was obtained by repeated aspiration of the cell preparation through a 22-gauge needle, and nucleated cells were counted with a hemocytometer. Cells were seeded into 6-well plates at a density of 3×10^7 cells/mL and cultured for three days in a-MEM supplemented with 10% FBS, 100 kU/L of sodium penicillin G and 100 mg/L of streptomycin sulfate in a humidified incubator with 5% CO2 and 95% air at a temperature of 37° C. On day 3, all nonadherent cells were then removed with the first medium change and then the adherent cells (representing bone marrow-derived mesenchymal stem cells, BMSCs) were grown for additional periods of up 3 days in the same medium. After overnight quiescence, the cells were stimulated for 5 minutes by testosterone and p-estradiol at the concentrations as indicated.

bone marrow and testes = experiment: phospho-ERK activity and Egr-1 expression in bone marrow and testes in vivo; parameters: species or system mouse; details: 200 mg/kg intraperitoneally
Procedure: (§1) To establish a linkage between non-genomic effects of androgens and tissue responses in vivo, we examined the impact of loss of GPRC6A on the capacity of testosterone to stimulate phospho-ERK activity and early growth-responsive 1 (Egr-1) expression in bone marrow and testes in vivo (FIGS. 8D and 8E). To accomplish this, we administered testosterone at a dose of 200 MG/KG or vehicle intraperitonealy to wild-type and GPRC6A^−/− male mice.
as §1, with “(FIG.” for “in vivo (FIGS. 8D and”, “mg/kg” for “MG/KG”, “intraperitoneally” for “intraperitonealy”, “mice. Bone marrow was harvested at 20 and 60 minutes for assessment of ERK phosphorylation and Egr-1 mRNA expression.” for “mice.”

[2] = molecular target: T1, calcium sensing receptor (CASR) (Rattus norvegicus, UniProt P48442); experiment: phospho-ERK in HEK-293 cells transfected with calcium sensing receptor; format: cell-based; details: HEK293 transfected with CASR
T1 construct: expressed in transfected cells; host or cells: HEK-293
T1 sequence (P48442 20-1079): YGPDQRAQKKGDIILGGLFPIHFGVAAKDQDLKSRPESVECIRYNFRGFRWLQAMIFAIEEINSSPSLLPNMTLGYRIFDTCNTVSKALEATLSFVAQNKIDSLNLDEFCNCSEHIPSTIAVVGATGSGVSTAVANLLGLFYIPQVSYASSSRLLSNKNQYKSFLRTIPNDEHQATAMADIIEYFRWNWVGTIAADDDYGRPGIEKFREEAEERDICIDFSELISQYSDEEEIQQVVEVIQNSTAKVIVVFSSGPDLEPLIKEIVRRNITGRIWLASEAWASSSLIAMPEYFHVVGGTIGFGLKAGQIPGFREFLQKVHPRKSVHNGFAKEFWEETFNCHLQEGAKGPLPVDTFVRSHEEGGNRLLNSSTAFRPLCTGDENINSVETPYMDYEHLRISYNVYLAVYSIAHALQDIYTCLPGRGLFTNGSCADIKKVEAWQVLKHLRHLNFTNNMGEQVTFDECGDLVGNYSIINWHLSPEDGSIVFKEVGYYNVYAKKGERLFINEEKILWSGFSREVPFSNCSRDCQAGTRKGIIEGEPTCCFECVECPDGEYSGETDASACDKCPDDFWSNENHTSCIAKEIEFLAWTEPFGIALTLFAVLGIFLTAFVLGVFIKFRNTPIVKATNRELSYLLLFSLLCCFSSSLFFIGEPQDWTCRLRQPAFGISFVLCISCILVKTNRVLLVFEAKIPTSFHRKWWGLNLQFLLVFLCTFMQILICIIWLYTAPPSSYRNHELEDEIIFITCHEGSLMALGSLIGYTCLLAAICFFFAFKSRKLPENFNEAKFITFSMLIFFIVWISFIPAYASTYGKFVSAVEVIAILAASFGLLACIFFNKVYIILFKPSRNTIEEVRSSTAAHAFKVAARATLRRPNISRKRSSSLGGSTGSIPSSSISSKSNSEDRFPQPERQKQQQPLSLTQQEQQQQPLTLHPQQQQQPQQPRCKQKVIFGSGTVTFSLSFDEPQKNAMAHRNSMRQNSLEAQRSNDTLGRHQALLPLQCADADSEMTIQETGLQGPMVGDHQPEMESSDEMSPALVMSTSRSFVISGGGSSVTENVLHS
Procedure: Equal amounts of lysates were subjected to 10% SDS-PAGE, and phospho-ERK1/2 levels were determined by immunoblotting using antiphospho-ERK1/2 mitogen-activated protein kinase antibody (Cell Signaling Technology). […] An anti-peptide antibody was raised in a rabbit against a peptide ([…] (SEQ ID NO: 27)) corresponding to a sequence in the extracellular domain of mouse GPRC6A (in exon 1 of mouse GPRC6A gene) produced by Abgent (San Diego, Calif.). For phospho-ERK, the phospho-ERK1/2 levels were determined by immunoblotting using anti-phospho-ERK1/2 mitogen-activated protein kinase antibody (Cell Signaling Technology). Urinary β2-microglobulin was detected by rabbit polyclonal anti-β2-microglobulin antibody (Abcam Inc.). For aromatase expression analysis, the rabbit polyclonal anti-aromatase antibody (Abcam Inc.) and goat anti-rabbit IgG HRP secondary antibody (Santa Cruz Biotechnology Inc.) were used. Mouse anti-Actin antibody (Santa Cruz Biotechnology Inc.) was used for control protein loading.

C[C@]12CC[C@H]3[C@@H](CCC4=CC(=O)CC[C@@]43C)[C@@H]1CC[C@@H]2O [testosterone]
stimulation of phospho-ERK in BMSC ([1]; BMSC from GPRC6A-/- mice, testosterone up to 80 nM): only minimal effects | stimulation of phospho-ERK in BMSC ([1]; BMSC from wild-type mice): substantial stimulation of ERK | Egr-1 expression in bone marrow and testes (bone marrow and testes; GPRC6A-/- male mice): markedly attenuated | phospho-ERK activity in bone marrow and testes (bone marrow and testes; GPRC6A-/- male mice): markedly attenuated | Egr-1 expression in bone marrow and testes (bone marrow and testes; wild-type male mice): stimulated | phospho-ERK activity in bone marrow and testes (bone marrow and testes; wild-type male mice): stimulated | phospho-ERK response [2]: did not responded

Reference: patent publication US20090142323A1, “METHODS FOR TREATING A DISORDER BY REGULATING GPRC6A” (priority 2007, published 2009)
